Experimental data taken from patent US7732470B2, “Compositions and methods for the treatment of renal and cardiovascular disease” (Medical College of Georgia Research Institute, priority 2006, dated 2010).

Test system: spontaneously hypertensive rats (SHR)
Assay: Blood pressure in spontaneously hypertensive rats
Format: in vivo, rat
Procedure: As the 11-nonyloxy-undec-8(Z)-enoic acid derivatives lowered blood pressure in angiontensin hypertension, additional experiments were performed to determine if one of the derivatives could lower blood pressure in another hypertension model system. Male spontaneously hypertensive rats (SHRs) were maintained on a 12-hour light-dark cycle and allowed access to food and water ad libitum. These studies complied with the protocols for animal use outlined by the American Physiological Society and were approved by the institutional animal care and use committee.
Rats from 6 to 12 weeks of age were treated with 11-nonyloxy-undec-8(Z)-enoic acid derivative (TVR-I-276-21)( 2 mg/d i.p.) or vehicle for 8 days. Blood pressure was measured at Day 0, Day 4, and Day 8.
The blood pressure lowering effects of these analogs were analyzed in an established model of hepertension, the spontaneously hypertensive rats (SHR) using telemetry. […] As discussed in the previous example, additional derivatives with improved solubility and resistance to auto-oxidation and metabolism by sEH were designed using the pharmacophoric moiety of EET.
Amidation of the carboxylic group with aspartic acid produced another EET analog 32 (SA-III-161-32). […] Amidation of the carboxylic group with lysine amino acid produced another EET analog 34 (SA-III-172-26).

With `CCCCCCCCCOCC/C=C\CCCCCCC(=O)NC(CC(=O)O)C(=O)O` (centres unmarked) [SA-III-161-32, (Z)-2-(11-(nonyloxy)undec-8-enamido) succinic acid] the “blood pressure lowering effect” value (injected at 3 mg/day for 5 days) was “demonstrated a blood pressure lowering effect” and the “MAP Δ change at day 2 of injection” value (injected at 3 mg/day for 5 days, telemetry) was −8±1.3 mmHg.

For `CCCCCCCCCOCC/C=C\CCCCCCC(=O)O` [11,12-ether EET-8-ZE, 11-nonyloxy-undec-8(Z)-enoic acid, reference compound], the blood pressure lowering was “failed to lower blood pressure”.

With `CCCCCCCCCOCC/C=C\CCCCCCC(=O)NC(CCCCN)C(=O)O` (centres unmarked) [SA-III-172-26, (Z)-6-amino-2-(11-(nonyloxy)undec-8-enamido)hexanoic acid] the “blood pressure lowering effect” value (injected at 2 mg/day) was “minimal blood pressure lowering effect”.

In the case of `CCCCCCCCCOCC/C=C\CCCCCCC(=O)OCCOCCOCCO` [TVR-I-276-21, (Z)-2-(2-(2-hydroxyethoxy)ethoxy)ethyl 11-(nonyloxy)undec-8-enoate], the blood pressure (2 mg/d i.p. for 8 days, measured Day 0, 4, 8, versus vehicle) was “did not increase to the same extent as those that received the vehicle treatment”.
